# According to BindingDB's records for doi:10.1080/14756360310001640913 (Saarland University, 2004):
# Molecular target: T1, Steroid 17-alpha-hydroxylase/17,20 lyase (Homo sapiens, UniProt P05093)
# T1 sequence (P05093 whole entry): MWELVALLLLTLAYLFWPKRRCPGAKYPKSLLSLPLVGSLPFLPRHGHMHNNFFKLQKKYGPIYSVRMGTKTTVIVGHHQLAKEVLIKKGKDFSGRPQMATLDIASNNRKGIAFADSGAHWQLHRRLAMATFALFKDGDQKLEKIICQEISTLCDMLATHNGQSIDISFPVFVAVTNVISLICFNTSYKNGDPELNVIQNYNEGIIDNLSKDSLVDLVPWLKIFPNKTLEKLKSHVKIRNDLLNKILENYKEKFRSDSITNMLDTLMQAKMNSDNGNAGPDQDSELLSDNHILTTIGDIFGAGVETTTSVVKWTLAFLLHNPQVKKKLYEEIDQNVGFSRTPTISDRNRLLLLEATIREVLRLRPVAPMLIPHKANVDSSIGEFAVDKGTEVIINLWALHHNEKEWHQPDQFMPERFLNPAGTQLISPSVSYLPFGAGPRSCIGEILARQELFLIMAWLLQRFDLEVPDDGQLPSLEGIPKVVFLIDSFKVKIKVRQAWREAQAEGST
# Assay: CYP17 Assay
# Details: pH 7.4; 37 °C
row,Compound,IC50 [nM]
1,"COc1cc2c(cc1OC)C(C)=C(Cc1cnc[nH]1)CC2 [5-[(6,7-dimethoxy-1-methyl-3,4-dihydronaphthalen-2-yl)methyl]-1H-imidazole]",490
2,COc1ccc2c(c1)CCC(Cc1cnc[nH]1)=C2C,110
3,COc1cc2c(cc1O)C(C)=C(Cc1cnc[nH]1)CC2 [dihydronaphthalene derivative],1100
4,"Oc1ccc(-c2ccc(Cn3ccnc3)cc2)cc1O [4-[4-(1H-imidazol-1-ylmethyl)phenyl]benzene-1,2-diol]",120
